The test system of series [1] is Rattus norvegicus. As to the kind of experiment: Antiinflammatory activity in Wistar rat assessed as inhibition of carrageenan-induced paw edema at 10 mg/kg indomethacin mol equivalent, ip administered 1 hr prior to carrageenan challenge measured at 24 hrs relative to control. In kind it is functional. As to conditions: route intraperitoneal.
Series [2] has as its system Rattus norvegicus. The series is described as follows: Antiinflammatory activity in Wistar rat assessed as inhibition of carrageenan-induced paw edema at 10 mg/kg indomethacin mol equivalent, ip administered 1 hr prior to carrageenan challenge measured at 4 hrs relative to control. In kind it is functional. Particulars: route intraperitoneal. In general terms: Carrageenan injected into the paw causes an acute inflammation.

The subject of series [3] is Rattus norvegicus. As to the kind of experiment: Antiinflammatory activity in Wistar rat assessed as inhibition of carrageenan-induced paw edema at 10 mg/kg indomethacin mol equivalent, ip administered 1 hr prior to carrageenan challenge measured at 2 hrs relative to control. As to conditions: route intraperitoneal. In kind it is functional.
Series [4] concerns Rattus norvegicus. As to the kind of experiment: Antiinflammatory activity in Wistar rat assessed as inhibition of carrageenan-induced paw edema at 10 mg/kg indomethacin mol equivalent, ip administered 1 hr prior to carrageenan challenge measured at 1 hr relative to control. In kind it is functional. Particulars: route intraperitoneal.
Series [5] relates to Rattus norvegicus. The series is described as follows: Antiinflammatory activity in Wistar rat assessed as inhibition of carrageenan-induced paw edema at 10 mg/kg indomethacin mol equivalent, ip administered 1 hr prior to carrageenan challenge measured at 3 hrs relative to control. Type of series: functional. Particulars: route intraperitoneal.
Series [6] deals with Mus musculus. The series is described as follows: Toxicity in albino mouse assessed as mortality at 50 to 100 mg/kg indomethacin mol equivalent, ip measured after 24 hrs. Type of series: organism-based. More on the design: dose 50-100 mg/kg, route intraperitoneal. As to conditions: in vivo.
For series [7], the system named is Mus musculus. The series is described as follows: Toxicity in albino mouse assessed as appearance of toxic symptoms at 50 to 100 mg/kg indomethacin mol equivalent, ip measured after 24 hrs. Particulars: in vivo. More on the design: dose 50-100 mg/kg, route intraperitoneal. In kind it is organism-based.
The subject of series [8] is Rattus norvegicus. As to the kind of experiment: Ulcerogenic activity in Wistar rat assessed as ulcer index at 10 mg/kg indomethacin mol equivalent, po administered 3 days relative to control. Type of series: toxicity, organism-based. More on the design: dose 10 mg/kg, route oral. Particulars: in vivo, 72 h.
In series [9] the test system is Rattus norvegicus. The series is described as follows: Antiinflammatory activity in Wistar rat assessed as inhibition of carrageenan-induced paw edema at 10 mg/kg, ip administered 1 hr prior to carrageenan challenge measured at 3 hrs relative to control. Type of series: functional. As to conditions: route intraperitoneal.
For series [10], the system named is Rattus norvegicus. The series is described as follows: Antiinflammatory activity in Wistar rat assessed as inhibition of carrageenan-induced paw edema at 10 mg/kg, ip administered 1 hr prior to carrageenan challenge measured at 1 hr relative to control. As to conditions: route intraperitoneal. Type of series: functional.
For series [11], the system named is Rattus norvegicus. As to the kind of experiment: Antiinflammatory activity in Wistar rat assessed as inhibition of carrageenan-induced paw edema at 10 mg/kg, ip administered 1 hr prior to carrageenan challenge measured at 2 hrs relative to control. In kind it is functional. Particulars: route intraperitoneal.
The subject of series [12] is Rattus norvegicus. The series is described as follows: Ulcerogenic activity in Wistar rat assessed as ulcer index at 10 mg/kg, po administered 3 days relative to control. In kind it is toxicity, organism-based. More on the design: dose 10 mg/kg, route oral. Particulars: in vivo, 72 h.

For orientation: inhibition in vivo means the drop in the measured response relative to a control, in per cent. For the compound `CC(=O)Nc1ccc(O)c(C(=O)O)c1`, the inhibition in vivo in [1] came to 0%; in series [2], 0%; in series [3] it was 7.9%; in series [4] it was 43.3%; in [5], 1.3%.
As for `Cc1ncc([N+](=O)[O-])n1CCOC(=O)c1cc(NC(=O)CNC(=O)OCc2ccccc2)ccc1O`, the inhibition in vivo in series [1] was 17.1%; in series [2] it was 52.8%; in series [3], 56.5%; in series [4], 56.1%; in series [5], 57%.
For `Cc1ncc([N+](=O)[O-])n1CCOC(=O)c1cc(NC(=O)[C@H](C)NC(=O)OCc2ccccc2)ccc1O`, in that order: 11.6%, 36.1%, 37.5%, 58.5% and 37.1%.
For `Cc1ncc([N+](=O)[O-])n1CCOC(=O)c1cc(NC(=O)[C@H](Cc2ccccc2)NC(=O)OCc2ccccc2)ccc1O`, in that order: 33.2%, 27.5%, 30.1%, 54.8% and 29%.
In the case of `Cc1ncc([N+](=O)[O-])n1CCOC(=O)c1cc(NC(=O)[C@@H](NC(=O)OCc2ccccc2)C(C)C)ccc1O`, the inhibition in vivo in series [1] turned out to be 51.7%; in series [2], 58.2%; in [3] it was 64.5%; in [4], 74.4%; in series [5] it was 61.5%. Moreover, the Activity result in series [6] and in [7] was “Non-toxic” each time. Besides, in series [8], the UI stood at 0.
Turning to `Cc1ncc([N+](=O)[O-])n1CCOC(=O)c1cc(NC(=O)[C@H](CCCCN)NC(=O)OCc2ccccc2)ccc1O`, the inhibition in vivo in [1] worked out at 23.4%; in series [2] it was 33.5%; in [3], 37.8%; in [4], 44.3%; in [5] it was 36.9%.
On the same counts, the results for `CC(=O)Nc1ccc(O)c(C(=O)OCCn2c([N+](=O)[O-])cnc2C)c1` are 0%, 15.5%, 24.5%, 63.4% and 16.6%.
Consider `Cc1ncc([N+](=O)[O-])n1CCOC(=O)c1cc(NC(=O)C(C)NC(=O)OCc2ccccc2)ccc1O` (racemic), for which the inhibition in vivo in series [1] was 0%; in series [2], 41.1%; in series [3] it was 47%; in [4], 57.9%; in [5], 44.8%.
Regarding `COc1ccc2c(c1)c(CC(=O)O)c(C)n2C(=O)c1ccc(Cl)cc1` [INDOMETHACIN], the inhibition in vivo at 10 mg/kg in series [9] is 61.3%; in [10], 48.3%; in [11] it was 55.3%. Also, in [12], the UI was found to be 6.
`Nc1ccc(O)c(C(=O)O)c1` [MESALAMINE]: the inhibition in vivo in series [1] came out at 38.6%; in series [2], 52.3%; in [3], 53.2%; in series [4], 63.8%; in series [5] it was 57.5%.
As to `Cc1ncc([N+](=O)[O-])n1CCO` [METRONIDAZOLE], the inhibition in vivo came to 0% in series [1]; 58.9% in series [2]; 66.3% in series [3]; 66.3% in [4]; 60.8% in series [5]. For the same compound, the Activity entry in [6] and in [7] was “Non-toxic” throughout. For the same compound, in series [8], the UI is 0.

For the origin of these results see ChEMBL document CHEMBL3421592, “Synthesis and QSAR study of novel anti-inflammatory active mesalazine-metronidazole conjugates” (Bioorg Med Chem Lett, 2015).
